Data from ChEMBL document CHEMBL5096171, “Synthesis and Biological Evaluation of PSMA Ligands with Aromatic Residues and Fluorescent Conjugates Based on Them” (J Med Chem, 2021).
≈ marks a conversion by molar mass, not a printed value.

Experiments:
[1] = Chronic toxicity in Soviet Chinchilla rabbit assessed as change in lung histology at 120 to 243 mg/kg, iv administered once every 3 weeks; format: organism-based, Oryctolagus cuniculus; conditions: in vivo, 504 h, dose 120-243 mg/kg
[2] = Chronic toxicity in Soviet Chinchilla rabbit assessed as change in blood albumin content at 120 to 243 mg/kg, iv administered once every 3 weeks; format: organism-based, Oryctolagus cuniculus; conditions: in vivo, 504 h, dose 120-243 mg/kg
[3] = Chronic toxicity in Soviet Chinchilla rabbit assessed as change in spleen histology at 120 to 243 mg/kg, iv administered once every 3 weeks; format: organism-based, Oryctolagus cuniculus; conditions: in vivo, 504 h, dose 120-243 mg/kg
LNCaP = assay: Cytotoxicity against human LNCaP cells assessed as reduction in cell viability incubated for 5 days by MTT assay; format: functional; conditions: 120 h, time 5 day
[4] = Chronic toxicity in Soviet Chinchilla rabbit assessed as signs of intoxication at 120 to 243 mg/kg, iv administered once every 3 weeks; format: organism-based, Oryctolagus cuniculus; conditions: in vivo, 504 h, dose 120-243 mg/kg
[5] = Chronic toxicity in Soviet Chinchilla rabbit assessed as change in heart histology at 120 to 243 mg/kg, iv administered once every 3 weeks; format: organism-based, Oryctolagus cuniculus; conditions: in vivo, 504 h, dose 120-243 mg/kg
[6] = Chronic toxicity in Soviet Chinchilla rabbit assessed as change in kidney histology at 120 to 243 mg/kg, iv administered once every 3 weeks; format: organism-based, Oryctolagus cuniculus; conditions: in vivo, 504 h, dose 120-243 mg/kg
[7] = Chronic toxicity in Soviet Chinchilla rabbit assessed as change in brain histology at 120 to 243 mg/kg, iv administered once every 3 weeks; format: organism-based, Oryctolagus cuniculus; conditions: in vivo, 504 h, dose 120-243 mg/kg
[8] = Chronic toxicity in Soviet Chinchilla rabbit assessed as change in liver histology at 120 to 243 mg/kg, iv administered once every 3 weeks; format: organism-based, Oryctolagus cuniculus; conditions: in vivo, 504 h, dose 120-243 mg/kg
PC-3 = assay: Cytotoxicity against human PC-3 cells assessed as reduction in cell viability incubated for 5 days by MTT assay; format: functional; conditions: PC-3, 120 h, time 5 day
[9] = AUC (0 to infinity) in Soviet Chinchilla rabbit by HPLC analysis; format: ADME, Oryctolagus cuniculus; parameters: time infinity; conditions: in vivo
[10] = Acute toxicity in 2 hrs fasted ICR mouse assessed as body weight reduction at 89.7 mg/kg, iv measured for 5 to 10 days; format: organism-based; conditions: in vivo
[11] = Half life in Wistar Albino rat by HPLC analysis; format: ADME; conditions: in vivo
[12] = Clearance in Wistar Albino rat by HPLC analysis; format: ADME; conditions: in vivo
[13] = Volume of distribution in Soviet Chinchilla rabbit by HPLC analysis; format: ADME, Oryctolagus cuniculus; conditions: in vivo
[14] = Drug uptake in human 22Rv1 cells xenografted in Balb/c nude mouse assessed as amount of fluorescence intensity at 0.449 mg/kg, IT administered as single dose measured after 24 hrs by IVIS Spectrum CT analysis; format: ADME, organism-based, CWR22R; conditions: in vivo, other
[15] = Drug distribution in small intestine of Wistar Albino rat measured after 2 to 4 hrs; format: ADME, tissue-based; conditions: in vivo, time 2-4 hrs
[16] = Acute toxicity in 10 to 12 hrs fasted Wistar rat assessed as increase in kidney damage at 45 mg/kg, iv measured after 14 days; format: organism-based; conditions: in vivo, 336 h, time 14 day
[17] = Drug distribution in liver of Wistar Albino rat measured after 2 to 4 hrs; format: ADME, tissue-based; conditions: in vivo, time 2-4 hrs
[18] = Drug excretion in […] at 0.449 mg/kg, IT administered as single dose measured after 24 hrs; format: ADME, organism-based, CWR22R; conditions: in vivo, other
[19] = AUC (0 to t) in Soviet Chinchilla rabbit by HPLC analysis; format: ADME, Oryctolagus cuniculus; conditions: in vivo
[20] = Acute toxicity in 2 hrs fasted ICR mouse assessed as reversible decrease in body weight dynamics at 89.7 mg/kg, iv measured after 14 days; format: organism-based; conditions: in vivo, 336 h, time 14 day
[21] = AUC (0 to infinity) in Wistar Albino rat by HPLC analysis; format: ADME; parameters: time infinity; conditions: in vivo
[22] = Drug distribution in blood plasma of Wistar Albino rat measured after 2 to 4 hrs; format: ADME, cell-free; conditions: time 2-4 hrs
[23] = C0 in Soviet Chinchilla rabbit by HPLC analysis; format: ADME, Oryctolagus cuniculus; conditions: in vivo
[24] = Drug uptake in bloodstream of Balb/c nude mouse xenografted with human 22Rv1 cells at 0.449 mg/kg, IT administered as single dose measured upto 8 hrs; format: ADME, organism-based, Blood, CWR22R; conditions: in vivo, other
[25] = Acute toxicity in 10 to 12 hrs fasted Wistar rat assessed as toxic effect at 0.72 to 45 mg/kg, iv measured after 14 days; format: organism-based; conditions: in vivo, 336 h, dose 0.72-45 mg/kg, time 14 day
[26] = Clearance in Soviet Chinchilla rabbit by HPLC analysis; format: ADME, Oryctolagus cuniculus; conditions: in vivo
[27] = Acute toxicity in 2 hrs fasted ICR mouse assessed as toxic effect at 1.1 mg/kg, iv measured after 14 days; format: organism-based; conditions: in vivo, 336 h, time 14 day
[28] = Drug uptake in human PC-3 cells xenografted in Balb/c nude mouse assessed as amount of fluorescence intensity at 0.449 mg/kg, IT administered as single dose measured after 24 hrs by IVIS Spectrum CT analysis; format: ADME, organism-based; conditions: in vivo, other
[29] = Volume of distribution in Wistar Albino rat by HPLC analysis; format: ADME; conditions: in vivo
[30] = Acute toxicity in 10 to 12 hrs fasted Wistar rat assessed as maximum tolerated dose administered intravenously measured after 14 days; conditions: in vivo, route iv, time 14 day
[31] = Elimination rate constant in Wistar Albino rat by HPLC analysis; format: ADME
[32] = MRT (0 to t) in Wistar Albino rat by HPLC analysis; format: ADME; conditions: in vivo
[33] = Half life in Soviet Chinchilla rabbit by HPLC analysis; format: ADME, Oryctolagus cuniculus; conditions: in vivo
[34] = molecular target: Glutamate carboxypeptidase 2 (Homo sapiens, UniProt Q04609); assay: Inhibition of PSMA derived from human LNCaP cell lysate assessed as inhibition of NAAG hydrolysis incubated for 2 hrs in presence of NAAG by Amplex Red assay; format: subcellular
Chain of Glutamate carboxypeptidase 2 (Q04609 whole entry): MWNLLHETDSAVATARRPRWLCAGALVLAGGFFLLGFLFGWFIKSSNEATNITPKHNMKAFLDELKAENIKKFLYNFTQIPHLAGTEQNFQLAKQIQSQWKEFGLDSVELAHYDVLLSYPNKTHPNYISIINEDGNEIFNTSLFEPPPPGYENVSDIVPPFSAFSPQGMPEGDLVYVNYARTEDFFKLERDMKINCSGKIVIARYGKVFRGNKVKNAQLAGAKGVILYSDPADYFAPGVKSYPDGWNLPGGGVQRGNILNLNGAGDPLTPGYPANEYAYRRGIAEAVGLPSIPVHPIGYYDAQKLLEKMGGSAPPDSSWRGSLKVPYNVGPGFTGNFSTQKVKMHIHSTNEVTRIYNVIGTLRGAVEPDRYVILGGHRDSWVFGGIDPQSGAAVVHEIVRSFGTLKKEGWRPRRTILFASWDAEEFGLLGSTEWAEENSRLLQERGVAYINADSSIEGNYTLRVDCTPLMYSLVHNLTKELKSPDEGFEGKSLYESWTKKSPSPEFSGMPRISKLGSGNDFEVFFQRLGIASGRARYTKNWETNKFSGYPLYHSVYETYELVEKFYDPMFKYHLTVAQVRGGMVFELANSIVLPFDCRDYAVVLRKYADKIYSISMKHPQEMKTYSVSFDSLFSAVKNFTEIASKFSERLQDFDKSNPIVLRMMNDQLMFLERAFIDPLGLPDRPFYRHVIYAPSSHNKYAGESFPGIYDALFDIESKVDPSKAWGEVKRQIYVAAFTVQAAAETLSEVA

[35] = MRT (0 to t) in Soviet Chinchilla rabbit by HPLC analysis; format: ADME, Oryctolagus cuniculus; conditions: in vivo
[36] = Elimination rate constant in Soviet Chinchilla rabbit by HPLC analysis; format: ADME, Oryctolagus cuniculus
[37] = Water solubility of the compound; format: physicochemical
[38] = AUC (0 to t) in Wistar Albino rat by HPLC analysis; format: ADME; conditions: in vivo
[39] = Acute toxicity in 2 hrs fasted ICR mouse assessed as maximum tolerated dose administered intravenously measured after 14 days; conditions: in vivo, route iv
[40] = Acute toxicity in 2 hrs fasted ICR mouse assessed as restoration of mass gain rate at 89.7 mg/kg, iv measured on day 14; format: organism-based; conditions: in vivo, 336 h, time 14 day
[41] = n-Octanol/aqueous buffer distribution coefficient, log D of compound at pH 6.4 by shake flask method; format: physicochemical
[42] = Drug excretion in urine of Wistar Albino rat measured after 2 to 4 hrs; format: ADME; conditions: in vivo, time 2-4 hrs
[43] = Drug distribution in kidney of Wistar Albino rat measured after 2 to 4 hrs; format: ADME, tissue-based; conditions: in vivo, time 2-4 hrs
[44] = Acute toxicity in 10 to 12 hrs fasted Wistar rat assessed as change in body weight dynamics at 0.72 to 45 mg/kg, iv measured after 14 days; format: organism-based; conditions: in vivo, 336 h, dose 0.72-45 mg/kg, time 14 day
[45] = C0 in Wistar Albino rat by HPLC analysis; format: ADME; conditions: in vivo

CN1/C(=C/C=C2C=C(/C=C/C3=[N+](CCCCCC(=O)O)c4ccc(S(=O)(=O)[O-])cc4C3(C)C)CCC/2)C(C)(C)c2cc(S(=O)(=O)O)ccc21
Activity [1]: Non-Toxic
Activity [2]: Toxic
Activity [3]: Non-Toxic
CC50 (LNCaP): > 100 µM
Activity [4]: Non-Toxic
Activity [5]: Non-Toxic
Activity [6]: Non-Toxic
Activity [7]: Non-Toxic
Activity [8]: Non-Toxic
CC50 (PC-3): > 100 µM

CN1/C(=C/C=C2C=C(/C=C/C3=[N+](CCCCCC(=O)NCc4cn(CCCNC(=O)[C@H](Cc5ccc(O)cc5)NC(=O)[C@H](Cc5ccccc5)NC(=O)CCC(=O)NCCCCCC(=O)N(CCCC[C@H](NC(=O)N[C@@H](CCC(=O)O)C(=O)O)C(=O)O)Cc5cccc(Cl)c5)nn4)c4ccc(S(=O)(=O)[O-])cc4C3(C)C)CCC/2)C(C)(C)c2cc(S(=O)(=O)O)ccc21
AUC(0-inf) [9]: 82000 ng·h/mL
Activity [10]: Toxic
half-life [11]: 1.78 h
clearance [12]: 8.22 mL/min/kg
Vd [13]: 1.49 L/kg
Activity [1]: Non-Toxic
Activity [14]: 1.9 10^9(p/s)(uW/cm^2)
Drug uptake [15]: Active
Activity [16]: Toxic
Drug uptake [17]: Active
Drug uptake [18]: Active
AUC(0-t) [19]: 70000 ng·h/mL
Activity [20]: Toxic
AUC(0-inf) [21]: 76000 ng·h/mL
Drug uptake [22]: Active
C0 [23]: 869 µg/mL
Activity [2]: Toxic
Activity [3]: Non-Toxic
Drug uptake [24]: Active
Activity [25]: Non-Toxic
CC50 (LNCaP): 12.2 µM
Activity [4]: Non-Toxic
clearance [26]: 14 mL/min/kg
Activity [5]: Non-Toxic
Activity [27]: Non-Toxic
Activity [28]: 1.9 10^9(p/s)(uW/cm^2)
Vd [29]: 0.954 L/kg
MTD at 336 h [30]: 45 mg/kg
k el [31]: 0.000179 s⁻¹
Activity [6]: Non-Toxic
MRT last [32]: 0.719 h
half-life [33]: 1.39 h
Ki [34]: 0.0181 µM
Activity [7]: Non-Toxic
MRT last [35]: 0.18 h
k el [36]: 0.000181 s⁻¹
Activity [8]: Non-Toxic
CC50 (PC-3): 18.7 µM
solubility [37]: 560 µg/mL (≈ 312 µM)
AUC(0-t) [38]: 53000 ng·h/mL
MTD at 14 h [39]: 89.7 mg/kg
Activity [40]: Non-Toxic
logD [41]: -0.48
Drug excretion [42]: Active
Drug uptake [43]: Active
Activity [44]: Non-Toxic
C0 [45]: 342 µg/mL
